Experimental data published in patent US11213527B2, “Inhibitory effect of low molecular weight compound on cancer and fibrosis” (NATIONAL UNIVERSITY CORPORATION TOTTORI UNIVERSITY, priority 2014, dated 2022).

What was measured:
[1] = test system: HuH7 cells (a liver cancer cell line); test: Inhibitory effect on cancer cells (WST assay); format: cell-based; settings: 0-50 μM; 4 days (concentration-dependent) or 0, 1, 2, 4 days (time-dependent); DMSO control
Description: HuH7 cells (a liver cancer cell line) were cultured in a DMEM on a 10-cm cell culture dish (TPP Techno Plastic Products AG, Trasadingen, Switzerland) at 5% CO2, 37° C., and a humidity of 100%. After the cells were grown to 70 to 90% confluency, 200 μL of a Trypsin/EDTA solution was added thereto to detach the cells. The cells were centrifuged at 1000 rpm for 5 min at room temperature for recovery. Then, the cells in one dish were divided into four dishes and subcultured.
When a concentration-dependent anti-tumor effect was examined, HuH7 cells at 70 to 90% confluency were collected, and 1×10^4 cells were seeded in each well of a 96-well plate (FALCON). When a time-dependent anti-tumor effect was examined, 5×10^3 cells were seeded. Twenty-four hours after the seeding, the cells were treated with IC-2, PN3-13, or HC-1, and further incubated at 37° C. DMSO was used as a control.
The concentration of each low-molecular-weight compound was provided below. […] After that, absorbance (at a measurement wavelength of 450 nm/a control wavelength of 600 nm) was measured by a 96-well microplate reader (TECAN, Zurich, Switzerland). The absorbance of cells was calculated by subtracting the absorbance of reagent blank from the measured result, and was then converted to the viable cell count. Also, the IC50 of each low-molecular-weight compound was determined by using an equation: […]

unsorted HuH7 cells = test: Mice transplanted with unsorted HuH7 cells; format: in vivo; settings: unsorted HuH7 cells instead of CD44-positive HuH7 cells
Excerpt: The effect of treating malignant tumors may be evaluated by imaging, endoscopic examination, biopsy, or detection of a malignant tumor marker. In addition, the effect of treating cancer stem cells may be evaluated by imaging, endoscopic examination, biopsy, or detection of a cancer stem cell marker. In addition, the effect of treating fibrosis may be evaluated by imaging, endoscopic examination, biopsy, or detection of a fibrosis marker. […] At this time, the level of a marker after administration of a therapeutic drug may be 0.7, 0.5, 0.3, or 0.1 times the level before the administration (or of a control). […] At this time, the number of marker-positive cells after administration of the therapeutic drug may be 0.7, 0.5, 0.3, or 0.1 times the number before the administration (or of a control). Note that in Example 2 below, the therapeutic effect was evaluated by using mice in which CD44-positive HuH7 cells had been subcutaneously transplanted. The present inventors also replaced the above CD44-positive HuH7 cells by unsorted HuH7 cells.

## O=C1[C@H](Cc2ccccc2)N2C(=O)CCN(C(=O)NCc3ccccc3)[C@H]2CN1Cc1cccc2ccccc12 [IC-2]
[1]
  proliferation of HuH7 cells (cell viability): significantly inhibited proliferation
Unsorted HuH7 cells
  effect of treating a malignant tumor: exhibits an effect of treating a malignant tumor
